Tests used:
PDE3A = molecular target: T1, PDE3A (Homo sapiens, UniProt Q14432); test: Linker-affinity purification of molecular target of DNMDP and immunoblotting (competition); assay type: binding; settings: HeLa cell lysate, 10 μM compound
T1 construct: endogenous in cells; host or cells: HeLa
Procedure: To identify the molecular target of DNMDP, an affinity purification was performed using an (R)-des-nitro-DNMDP solid-phase tethered linker analogue (FIG. 10A) incubated with HeLa cell lysate. […] It was competed for the molecular target by adding either an excess of trequinsin or separate enantiomers of DNMDP, where only the (R)-enantiomer was cytotoxic. […] Binding of PDE3A to the linker analogue was blocked by both trequinsin and (R)-DNMDP, but not by the non-cytotoxic enantiomer (S)-DNMDP (FIG. 9C). Thus both trequinsin and (R)-DNMDP prevented the binding of PDE3A to the tethered DNMDP analogue, and it was concluded that both molecules bind PDE3A directly.
HeLa cells were washed with ice-cold PBS before lysed with NP-40 lysis buffer (150 mM NaCl, 10% glycerol, 50 mM Tris-Cl pH 8.0, 50 mM MgCl2, 1% NP-40) supplemented with EDTA-free protease inhibitors (Roche) and phosphatase inhibitor mixtures I and II (Calbiochem). Cell lysates were incubated on ice for at least 2 minutes and subsequently centrifuged for 10 minutes at 4° C. at 15,700×g after which the supernatant was quantified using BCA protein assay kit (Pierce). […] total HeLa cell lysate was incubated with 3 μl Affi-Gel 102 resin (BioRad) coupled to affinity linker DNMDP-2L in a total volume of 400 μl for four hours. Prior to incubation, indicated compounds were added to affinity purifications at a final concentration of 10 μM. Samples were washed three times with lysis buffer containing corresponding compound concentrations of 10 μM. Proteins bound to Affi-Gel 102 resin were reduced, denatured, and separated using Tris-Glycine gels (Novex) and transferred to nitrocellulose membranes using the iBlot transfer system (Novex). Membranes were incubated overnight at 4° C. with primary antibodies against PDE3A (1:1000, Bethyl). Incubation with secondary antibodies (1:20,000, LI-COR Biosciences) for two hours at room temperature and subsequent detection (Odyssey Imaging System, LI-COR Biosciences) were performed according to manufacturer's recommendations.

PDE3A(677-1141) = molecular target: T2, PDE3A(677-1141) (Homo sapiens, UniProt Q14432); test: Differential scanning fluorimetry (DSF) binding to purified PDE3A catalytic domain; settings: 5 μM PDE3A, 100 μM compound
T2 construct: purified PDE3A catalytic domain, PDE3A(677-1141)
Procedure: Binding buffer: 20 mM Hepes pH 7.4, 100 μM TCEP, 1 mM MgCl2, 150 mM NaCl.

HeLa cells [1] = test: Bioactives screen to rescue DNMDP induced cytotoxicity; assay type: cell-based, human; settings: 20 μM bioactive + 30 nM DNMDP, 48 h
From the text: Most importantly, PDE4 competitive inhibitors and PDE4 allosteric modulators with similar IC50s for cAMP hydrolysis in vitro had different cellular activities and safety profiles in animal studies (Burgin et al., Nat Biotechnol 28, 63-70, 2010). To evaluate whether PDE inhibitors or other small molecules compete with DNMDP, the PHARMAKON 1600 collection of 1600 bioactive compounds (PHARMAKON 1600 is a unique collection of 1600 known drugs from US and International Pharmacopeia) was screened to identify compounds that were able to rescue cell death induced by DNMDP. HeLa cells were co-treated with 30 nM DNMDP (the EC70 concentration) and 20 μM of each bioactive compound. Cell viability after 48-hour treatment was assessed by ATP […] as described earlier.
Bioactives Screen to Rescue DNMDP Induced Cytotoxicity 1000 HeLa cells were plated in a 384-well plate in 40 μl of DMEM supplemented with 10% Fetal Bovine Serum and 1% Pen/Strep. 24 hours after plating, a compound-library of 1600 bioactive molecules (Pharmacon) was added at a concentration of 20 μM. In parallel to bioactive compound incubation, DNMDP was added to a final concentration of 30 nM and incubated for 48 hours. Cell viability was assessed as described in Compound library screening in NCI-H1734 and A549 cell lines. Linker-Affinity Purification of Molecular Target of DNMDP and Immunoblotting

HeLa cells [2] = test: Follow-up dose-dependent rescue of DNMDP cytotoxicity (competition with DNMDP); assay type: cell-based, human; settings: co-treatment with DNMDP, 48 h; for rescue of DNMDP cytotoxicity / competition (in words): up to 10 μM
HeLa cells [3] = test: Compound sensitivity testing in cell lines (cell viability, 48 h); assay type: cell-based, human
Procedure: 1500 NCI-H1734 or 1000 A549 cells were plated in a 384-well plate in 40 μl of RPMI supplemented with 10% Fetal Bovine Serum and 1% Pen/Strep. 24 hours after plating, a compound-library of 1924 small molecules was added at a concentration of 10 μM. Staurosporine was used a positive control for cytotoxicity at a concentration of 10 μM, and DMSO was used a negative control at a concentration of 1%. All compounds were incubated for 48 hours with indicated small molecules. After 48 hours, 384-well plates were removed from the incubator and allowed to cool to room temperature for 20 minutes. Cell viability was assessed by adding 40 μl of a 25% CELLTITERGLO® (Promega) in PBS with a THERMO COMBI™ or multichannel-pipette and incubated for 10 minutes. The luminescence signal was read using a Perkin-Elmer EnVision. Viability percentage was calculated by normalizing to DMSO controls.
1000 HeLa (DMEM), 1000 A549 (RPMI), 500 MCF-7 (DMEM), 4000 PC3 (F12-K), 1000 NCI-H2122 (RPMI) or 1500 NCI-H1563 (RPMI) cells were plated in a 384-well plate in 40 μl of corresponding growth media supplemented with 10% Fetal Bovine Serum. 24 hours after plating, indicated compounds were added at indicated concentrations and incubated for 48 hours. Cell viability was assessed as described in Compound library screening in NCI-H1734 and A549 cell lines.

[4] = In vitro metabolic stability in cryopreserved human hepatocytes; assay type: in vitro ADME; settings: 1 μM test compound
Procedure: Investigation of In Vitro Metabolic Stability in Cryopreserved Human Hepatocytes (Including Calculation of Hepatic In Vivo Blood Clearance (CL) and Maximal Oral Bioavailability (Fmax))
Cryopreserved Hepatocytes (e.g. purchased from Celsis InVitroTechnologies) were briefly thawed, washed with 45 mL pre-warmed in in vitro GRO HT medium and centrifuged for 5 min at 50×g. The cell pellet was resuspended in 5 ml of Krebs-Henseleit […] (KHB). Cell viability was determined by trypan blue exclusion.
For the metabolic stability assay liver cells were distributed in WME containing 5% FCS to glass vials at a density of 1.0×10^6 vital cells/ml. The test compound was added to a final concentration of 1 μM. During incubation, the hepatocyte suspensions were continuously shaken at 580 rpm and aliquots were taken at 2, 8, 16, 30, 45 and 90 min, to which equal volumes of cold methanol were immediately added. Samples were frozen at −20° C. over night, after subsequently centrifuged for 15 minutes at 3000 rpm and the supernatant was analyzed with an Agilent 1290 HPLC-system with LCMS/MS detection.
The half-life of a test compound was determined from the concentration-time plot. From the half-life the intrinsic clearances were calculated. […] The hepatic in vivo blood clearance (CL) and the maximal oral bioavailability (Fmax) was calculated.

T1 sequence (Q14432 whole entry): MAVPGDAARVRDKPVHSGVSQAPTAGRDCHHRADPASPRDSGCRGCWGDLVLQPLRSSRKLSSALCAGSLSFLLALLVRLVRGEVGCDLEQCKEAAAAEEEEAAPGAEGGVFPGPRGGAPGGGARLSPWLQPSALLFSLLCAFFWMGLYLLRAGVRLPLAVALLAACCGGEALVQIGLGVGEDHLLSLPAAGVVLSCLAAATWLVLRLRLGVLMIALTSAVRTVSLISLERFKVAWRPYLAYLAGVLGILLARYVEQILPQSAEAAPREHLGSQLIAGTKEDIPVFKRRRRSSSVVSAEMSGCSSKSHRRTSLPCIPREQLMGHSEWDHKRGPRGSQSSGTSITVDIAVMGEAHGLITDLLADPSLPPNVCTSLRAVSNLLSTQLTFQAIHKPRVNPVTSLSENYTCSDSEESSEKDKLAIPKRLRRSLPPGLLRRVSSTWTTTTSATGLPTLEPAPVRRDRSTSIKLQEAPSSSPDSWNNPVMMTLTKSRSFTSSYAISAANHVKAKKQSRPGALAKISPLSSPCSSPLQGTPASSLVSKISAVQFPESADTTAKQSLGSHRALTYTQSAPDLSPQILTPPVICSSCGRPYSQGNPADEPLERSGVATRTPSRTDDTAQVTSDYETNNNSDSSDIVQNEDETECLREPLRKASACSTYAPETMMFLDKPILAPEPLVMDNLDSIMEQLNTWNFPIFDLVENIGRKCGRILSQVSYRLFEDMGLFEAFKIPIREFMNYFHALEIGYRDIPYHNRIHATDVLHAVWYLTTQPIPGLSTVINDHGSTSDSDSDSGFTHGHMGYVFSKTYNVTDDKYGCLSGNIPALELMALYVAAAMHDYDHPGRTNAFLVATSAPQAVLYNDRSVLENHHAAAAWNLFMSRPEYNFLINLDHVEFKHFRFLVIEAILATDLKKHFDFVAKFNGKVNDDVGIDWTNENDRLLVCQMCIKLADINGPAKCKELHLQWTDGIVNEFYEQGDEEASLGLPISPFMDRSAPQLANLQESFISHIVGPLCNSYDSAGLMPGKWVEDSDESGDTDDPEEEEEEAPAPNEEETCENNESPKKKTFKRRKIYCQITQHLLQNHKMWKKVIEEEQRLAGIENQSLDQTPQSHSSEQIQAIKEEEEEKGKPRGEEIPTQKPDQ
T2 sequence (Q14432 677-1141): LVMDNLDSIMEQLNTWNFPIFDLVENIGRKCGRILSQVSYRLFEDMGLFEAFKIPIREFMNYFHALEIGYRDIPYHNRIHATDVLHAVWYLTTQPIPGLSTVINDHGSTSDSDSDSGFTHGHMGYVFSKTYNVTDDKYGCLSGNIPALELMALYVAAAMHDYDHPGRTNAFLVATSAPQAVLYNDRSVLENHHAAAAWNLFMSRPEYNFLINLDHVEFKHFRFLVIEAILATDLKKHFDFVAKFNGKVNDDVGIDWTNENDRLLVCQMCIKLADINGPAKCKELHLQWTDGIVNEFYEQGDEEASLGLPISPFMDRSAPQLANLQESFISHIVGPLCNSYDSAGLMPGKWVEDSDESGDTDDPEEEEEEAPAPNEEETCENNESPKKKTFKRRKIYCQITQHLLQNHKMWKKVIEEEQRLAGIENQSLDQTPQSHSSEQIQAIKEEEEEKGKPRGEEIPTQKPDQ

| SMILES | blocking of PDE3A binding to the tethered linker analogue (PDE3A) | Tm (PDE3A(677-1141)) | rescue of DNMDP cytotoxicity / competition (in words) (HeLa cells [2]) | also measured |
| --- | --- | --- | --- | --- |
| O=C1CCc2cc(OCCCCc3nnnn3C3CCCCC3)ccc2N1 [cilostazol, 6-[4-(1-cyclohexyl-1H-tetrazol-5-yl)butoxy]-3,4-dihydro-2(1H)-quinolinone] |  |  |  | rescue of cell death induced by DNMDP (rank in screen) (HeLa cells [1]): three most potent compounds |
| CC(C)C(=O)c1c(C(C)C)nn2ccccc12 [idubulast] |  |  | not effective competitors |  |
| Cc1[nH]c(=O)c(C#N)cc1-c1ccncc1 [milrinone, 2-methyl-6-oxo-1,6-dihydro-3,4′-bipyridine-5-carbonitrile] |  |  | able to rescue DNMDP cytotoxicity in a dose-dependent manner | rescue of cell death induced by DNMDP (rank in screen) (HeLa cells [1]): three most potent compounds |
| CN(C(=O)CCCOc1ccc2[nH]c(=O)ccc2c1)C1CCCCC1 [cilostamide, N-cyclohexyl-N-methyl-4-[(2-oxo-1H-quinolin-6-yl)oxy]butanamide] |  |  | able to rescue DNMDP cytotoxicity in a dose-dependent manner |  |
| CCCc1nn(C)c2c(=O)[nH]c(-c3cc(S(=O)(=O)N4CCN(C)CC4)ccc3OCC)nc12 [sildenafil, 1-[4-ethoxy-3-(6,7-dihydro-1-methyl-7-oxo-3-propyl-1H-pyrazolo[4,3-d]pyrimidin-5-yl)phenylsulfonyl]-4-methylpiperazine] |  |  | not effective competitors |  |

Now from value to molecule, other results behind:

| blocking of PDE3A binding to the tethered linker analogue (PDE3A) | Tm (PDE3A(677-1141)) | SMILES | rescue of DNMDP cytotoxicity / competition (in words) (HeLa cells [2]) | also measured |
| --- | --- | --- | --- | --- |
| blocked |  | CCN(CC)c1ccc(C2=NNC(=O)C[C@H]2C)cc1[N+](=O)[O-] [(R)-DNMDP, (R)-6-(4-(diethylamino)-3-nitrophenyl)-5-methyl-4,5-dihydropyridazin-3(2H)-one] |  |  |
|  | 56.6 ± 0.0 °C | O=C1CN2Cc3c(ccc(Cl)c3Cl)N=C2N1 [Anagrelide, 6,7-dichloro-1,5-dihydroimidazo (2,1-b)quinazolin-2(3H)-one, reference compound] |  |  |
| not |  | CCN(CC)c1ccc(C2=NNC(=O)C[C@@H]2C)cc1[N+](=O)[O-] [(S)-DNMDP] |  |  |
| blocked | 66.2 ± 0.0 °C | COc1cc2c(cc1OC)-c1c/c(=N\c3c(C)cc(C)cc3C)n(C)c(=O)n1CC2 [Trequinsin, 9,10-dimethoxy-3-methyl-2-(2,4,6-trimethylphenyl)imino-6,7-dihydropyrimido[6,1-a]isoquinolin-4-one, reference compound] |  | effect on HeLa cell viability (in words) (HeLa cells [3]): did not affect HeLa cell viability in any detectable way; EC50 (HeLa cells [2]; Homo sapiens, read-out: RC50 (the concentration at which it achieved 50% rescue)): < 1 nM |
|  | 59.0 ± 0.0 °C | C[C@@H]1CC(=O)NN=C1c1ccc(N2CCOCC2)c(F)c1 (single isomer, unassigned) [Compound 3] |  | mean metabolic stability (Fmax) [4]: 49%; ΔTm at 100 µM (PDE3A(677-1141)): 6.6 °C |

Reference: patent US12053476B2, “Compounds, compositions and methods for cancer patient stratification and cancer treatment” (BAYER PHARMA AKTIENGESELLSCHAFT, priority 2016, dated 2024)
